{"source": "patent US20040102633A1", "about": "“Novel compounds” (priority 2000, published 2004)", "note": "Counter-ions that a name gives are not always drawn."}
{"smiles": "CC[C@H](NC(=O)c1c(CN2CCC(N3CCCCC3)CC2)c(-c2ccccc2)nc2cc(OCC(=O)O)ccc12)c1ccccc1", "note": "(as salt: hydrochloride) [Example 17, [3-[1,4′]Bipiperidinyl-1′-ylmethyl-2-phenyl-4((S)-1-phenyl-propylcarbamoyl)-quinolin-7-yloxy]-acetic Acid Dihydrochloride]", "melting point": "196 °C (dec.)"}
{"smiles": "CC[C@H](NC(=O)c1c(CN2CCC(N3CCCCC3)CC2)c(-c2ccccc2)nc2cc(OCC(N)=O)ccc12)c1ccccc1", "note": "(as salt: hydrochloride) [Example 20, 3-[1,4′]Bipiperidinyl-1′-ylmethyl-7-carbamoylmethoxy-2-phenyl-quinoline-4-carboxylic Acid ((S)-1-phenyl-propyl)-amide Dihydrochloride]", "melting point": "218 to 220 °C"}
{"smiles": "C[C@H](NC(=O)c1c(CN2CCC(N)CC2)c(-c2ccccc2)nc2ccccc12)C1CCCCC1", "note": "[Example 6, 3-(4-Amino-piperidin-1-ylmethyl)-2-phenyl-quinoline-4-carboxylic Acid ((S)-1-cyclohexyl-ethyl)-amide]", "melting point": "140 to 145 °C"}
{"smiles": "C[C@H](NC(=O)c1c(CN2CCC(N)CC2)c(-c2ccccc2)nc2ccccc12)c1ccccc1", "note": "[Example 7, 3-(4-Amino-piperidin-1-ylmethyl)-2-phenyl-quinoline-4-carboxylic Acid ((S)-1-phenyl-ethyl)-amide]", "melting point": "118 to 119 °C"}
{"smiles": "C[C@H](NC(=O)c1c(CN2CCC(N3CCCCC3=O)CC2)c(-c2ccccc2)nc2ccccc12)c1ccccc1", "note": "[Example 11, 3-(2-Oxo-[1,4′]bipiperidinyl-1′-ylmethyl)-2-phenyl-quinoline-4-carboxylic Acid ((S)-1-phenyl-ethyl)-amide]", "melting point": "124 to 125 °C"}
{"smiles": "C[C@H](NC(=O)c1c(CN2CCC(N3CCCC3=O)CC2)c(-c2ccccc2)nc2ccccc12)c1ccccc1", "note": "[Example 12, 3-[4-(2-Oxo-pyrrolidin-1-yl)-piperidin-1-ylmethyl]-2-phenyl-quinoline-4-carboxylic Acid ((S)-1-phenyl-ethyl)-amide]", "melting point": "120 to 125 °C"}
{"smiles": "CCOC(=O)C1CCCN(C2CCN(Cc3c(-c4ccccc4)nc4ccccc4c3C(=O)N[C@@H](C)C3CCCCC3)CC2)C1", "note": "(stereo partly drawn) [Example 13, 1′-[4-((S)-1-Cyclohexyl-ethylcarbamoyl)-2-phenyl-quinolin-3-ylmethyl]-[1,4′]bipiperidinyl-3-carboxylic Acid Ethyl Ester]", "melting point": "104 to 105 °C"}
{"smiles": "C[C@H](NC(=O)c1c(CN2CCC(N3CCCC(C(=O)O)C3)CC2)c(-c2ccccc2)nc2ccccc12)C1CCCCC1", "note": "(stereo partly drawn) [Example 14, 1′-[4-((S)-1-Cyclohexyl-ethylcarbamoyl)-2-phenyl-quinolin-3-ylmethyl]-[1,4′]bipiperidinyl-3-carboxylic Acid]", "melting point": "160 to 165 °C"}
{"smiles": "C[C@H](NC(=O)c1c(CN2CCC(N3CCCCC3)CC2)c(-c2ccccc2)nc2cc(O)ccc12)C1CCCCC1", "note": "[Example 15, 3-[1,4′]Bipiperidinyl-1′-ylmethyl-7-hydroxy-2-phenyl-quinoline-4-carboxylic Acid ((S)-1-cyclohexyl-ethyl)-amide]", "melting point": "177.9 to 178 °C"}
{"smiles": "CCOC(=O)COc1ccc2c(C(=O)N[C@@H](CC)c3ccccc3)c(CN3CCC(N4CCCCC4)CC3)c(-c3ccccc3)nc2c1", "note": "[Example 16, [3-[1,4′]Bipiperidinyl-1′-ylmethyl-2-phenyl-4-((S)-1-phenyl-propylcarbamoyl)-quinolin-7-yloxy]-acetic Acid Ethyl Ester]", "melting point": "101 to 104 °C"}
{"smiles": "C[C@H](NC(=O)c1c(CN2CCC(N3CCCCC3)CC2)c(-c2ccccc2)nc2cc(O)ccc12)c1ccccc1", "note": "[Example 18, 3-[1,4′]Bipiperidinyl-1′-ylmethyl-7-hydroxy-2-phenyl-quin line-4-carboxylic Acid ((S)-1-phenyl-ethyl)-amide]", "melting point": "99.6 to 99.7 °C"}
{"smiles": "CC[C@H](NC(=O)c1c(CN2CCC(N3CCCCC3)CC2)c(-c2ccccc2)nc2cc(OCCO)ccc12)c1ccccc1", "note": "[Example 19, 3-[1,4′]Bipiperidinyl-1′-ylmethyl-7-(2-hydroxy-ethoxy)-2-phenyl-quinoline-4-carboxylic acid ((S)-1-phenyl-propyl)-amide]", "melting point": "118 to 122 °C"}
{"smiles": "CC(C)[C@H](NC(=O)c1c(CN2CCC(N3CCCCC3)CC2)c(-c2ccccc2)nc2cc(O)ccc12)c1ccccc1", "note": "[Example 21, 3-[1,4′]Bipiperidinyl-1′-ylmethyl-7-hydroxy-2-phenyl-quinoline-4-carboxylic Acid ((S)-2-methyl-1-phenyl-propyl)-amide]", "melting point": "200 to 204 °C (dec.)"}
{"smiles": "COc1ccc2c(C(=O)N[C@H](c3ccccc3)C(C)C)c(CN3CCC(N4CCCCC4)CC3)c(-c3ccccc3)nc2c1", "note": "[Example 22, 3-[1,4′]Bipiperidinyl-1′-ylmethyl-7-methoxy-2-phenyl-quinoline-4-carboxylic Acid ((S)-2-methyl-1-phenyl-propyl)-amide]", "melting point": "113 to 116 °C"}
{"smiles": "C[C@H](NC(=O)c1c(CN2CCC(N3CCCCC3)CC2)c(-c2ccccc2)nc2cc(Cl)ccc12)C1CCCCC1", "note": "[Example 24, 3-[1,4′]Bipiperidinyl-1′-ylmethyl-7-chloro-2-phenyl-quinoline-4-carboxylic acid ((S)-1-cyclohexyl-ethyl)-amide]", "melting point": "152 to 154 °C"}
{"smiles": "C[C@H](NC(=O)c1c(CN2CCC(N3CCCCC3)CC2)c(-c2ccccc2)nc2cc(F)ccc12)C1CCCCC1", "note": "[Example 25, 3-[1,4′]Bipiperidinyl-1′-ylmethyl-7-fluoro-2-phenyl-quinoline-4-carboxylic Acid ((S)-1-cyclohexyl-ethyl)-amide]", "melting point": "161 to 163 °C"}
{"smiles": "C[C@H](NC(=O)c1c(CN2CCC(N3CCCCC3)CC2)c(-c2ccccc2)nc2c(F)cccc12)C1CCCCC1", "note": "[Example 26, 3-[1,4′]Bipiperidinyl-1′-ylmethyl-8-fluoro-2-phenyl-quinoline-4-carboxylic Acid ((S)-1-cyclohexyl-ethyl)-amide]", "melting point": "113 °C"}
{"smiles": "C[C@H](NC(=O)c1c(CN2CCC(N3CCCCC3)CC2)c(-c2cccs2)nc2ccccc12)C1CCCCC1", "note": "[Example 27, 3-[1,4′]Bipiperidinyl-1-ylmethyl-2-thiophen-2-yl-quinoline-4-carboxylic Acid ((S)-1-cyclohexyl-ethyl)-amide]", "melting point": "165 to 166 °C"}
{"smiles": "C[C@H](NC(=O)c1c(CN2CCC(N3CCCCC3)CC2)c(-c2ccccc2)nc2ccc(F)cc12)C1CCCCC1", "note": "[Example 28, 3-[1,4′]Bipiperidinyl-1′-ylmethyl-6-fluoro-2-phenyl-quinoline-4-carboxylic Acid ((S)-1-cyclohexyl-ethyl)-amide]", "melting point": "174 to 175 °C"}
{"smiles": "C[C@H](NC(=O)c1c(CN2CCC(N3CCCCC3)CC2)c(-c2ccc(F)cc2)nc2ccccc12)C1CCCCC1", "note": "[Example 29, 3-[1,4′]Bipiperidinyl-1′-ylmethyl-2-(4-fluoro-phenyl)-quinoline-4-carboxylic Acid ((S)-1-cyclohexyl-ethyl)-amide]", "melting point": "151 to 153 °C"}
{"smiles": "C[C@H](NC(=O)c1c(CN2CCC(N3CCCCC3)CC2)c(-c2ccc(C(F)(F)F)cc2)nc2ccccc12)C1CCCCC1", "note": "[Example 30, 3-[1,4′]Bipiperidinyl-1′-ylmethyl-2-(4-trifluoromethyl-phenyl) -quinoline-4-carboxylic Acid ((S)-1-cyclohexyl-ethyl)-amide]", "melting point": "138 to 140 °C"}
